Test results taken from patent US11401274B2, “[1,2,4]Triazolo derivatives as PDE1 inhibitors for the treatment of diabetes” (Eli Lilly and Company, priority 2017, dated 2022).

Columns and labels:
Type in all cases: biochemical
human PDE6A/6B = human PDE6A/6B (Homo sapiens (Human), UniProt P16499+P35913); assay: PDE enzyme assay using [3H]cGMP as substrate, PDE6A/6B; settings: [3H]cGMP 80 nM; enzyme 5 nM; read-out: PDE 6AB IC50 (μM) ± SD (n = number of runs)
Excerpt: (§1) The nucleotide sequences encoding full-length human PDE1A (NP_001003683.1) and PDE1C (NP_005011.1) are inserted into pFastBac1 (Invitrogen) vector with an N-terminal HIS tag. The nucleotide sequences encoding full-length human PDE4D (NP_006194.2) and catalytic domain (residue 641-1141) of PDE3A (NP_000912.3) are inserted into pFastBac1 (Invitrogen) vector with a C-terminal HIS tag. The nucleotide sequences encoding full-length human PDE6A (NP_000431.2) and PDE6B (AAH00249.1) are inserted into pFastBacDual (Invitrogen) vector with an N-terminal HIS tag and N-terminal Flag tag, respectively, for production of PDE6A/6B dimer. Baculovirus generation and protein expression in Sf9 cells are carried out according to the protocol of Bac-to-Bac Baculovirus Expression system (Invitrogen). The nucleotide sequence encoding full-length human PDE1B (NP_000915.1) is inserted into pIEX4 (Novagen) with a C-terminal HIS tag, and both protein productions in Sf9 cells are carried out according to the vendor's protocol (Novagen). The His tagged PDE proteins are purified using Ni-NTA agarose (Qiagen) followed by size exclusion chromatography on a SUPERDEX© 200 column (GE Healthcare) in storage buffer (20 mM Tris-HCl, pH7.5, 150 mM NaCl, 10% Glycerol). The Flag tagged PDE proteins including PDE6A/6B are purified using anti-Flag M2-agarose (Sigma), after purification through NiNTA column chromatography and eluted in storage buffer (50 mM Tris-HCl, pH7.5, 150 mM NaCl, 10% Glycerol, 0.1 mg/ml Flag peptide). All purified proteins are stored at −80° C. in small aliquots.
(§2) All 3′, 5′ cyclic nucleotide phosphodiesterase (PDE) enzyme activities are measured with a radiometric enzyme assay based on SPA detection system (scintillation proximity assay). Compounds to be tested are diluted in pure dimethyl sulfoxide (DMSO) using ten point concentration response curves. Maximal compound concentration in the reaction mixture is either 10 or 100 μM. Compounds at the appropriate concentration are pre-incubated with either of the PDE enzymes for 30 minutes before the reaction is started by the addition of substrate. Reactions are allowed to proceed for 60 minutes at room temperature. Next, reactions are stopped by addition of SPA beads. Samples are read 12 hours later in a MICROBETA™ TRILUX© Counter. “IC50” refers to the concentration of the compound that produces 50% of the maximal inhibitory response possible for that compound. IC50 values are calculated by plotting the normalized data vs. log [compound] and fitting the data using a four parameter logistic equation.
The following phosphodiesterase activities are measured using [3H]cGMP as reaction substrate: human PDE6A/6B. The catalytic active form of human PDE6 is a dimer composed of a α (human PDE6A) and β subunit (human PDE6B). The dimer of human PDE6A/6B is produced by the expression and purification strategy, using two purification steps, i.e., NiNTA and anti-FLAG Sepharose chromatography. The assay buffer is prepared to give a final concentration in the assay of 50 mM Tris-HCl, 8.3 mM MgC2, 1.7 mM EDTA and 0.1% Bovine serum albumin at pH 7.5. The final enzyme concentration is 5 nM. The reactions are started by addition of the substrate, [3H]cGMP, to give a final concentration of 80 nM.

[1] = target: human PDE3A (catalytic domain) (Homo sapiens (Human), UniProt Q14432); assay: PDE enzyme assay using [3H]cAMP as substrate, PDE3A; settings: [3H]cAMP 47 nM, enzyme 0.008 nM, read-out: PDE 3A IC50 (μm) ± SD (n = number of runs)
Excerpt: as §1, §2
(§3) The following phosphodiesterase activities are measured using [3H]cAMP as reaction substrate: human PDE3A (catalytic domain) and human PDE4D. Both enzymes are cloned and purified following standard procedures. The assay buffer is prepared to give a final concentration in the assay of 50 mM Tris-HCl, 8.3 mM MgCl2, 1.7 mM ethylenediarninetetraacetic acid (EDTA) and 0.1% Bovine serum albumin at pH 7.5. Final enzyme concentrations are 0.008 and 0.021 nM for PDE3A and PDE4D, respectively. Reactions are started by addition of the substrate, [3H]cAMP, to give a final concentration of 47 nM.

human PDE1C = human PDE1C (Homo sapiens (Human), UniProt Q14123); assay: Ca2+ calmodulin dependent PDE enzyme assay (SPA, [3H]cAMP), PDE1C; settings: [3H]cAMP 47 nM; enzyme 0.0012 nM; read-out: PDE 1C IC50 (nM) ± SD (n = number of runs)
Excerpt: as §1, §2
(§4) PDE1B, PDE1A, and PDE1C are cloned and purified following standard protein generation procedures. The assay buffer is prepared to give a final concentration in the assay of 50 mM Tris-HCl, 50 mM MgC2, 4 mM CaCl2, 0.1% Bovine serum albumin and 6 U/ml Calmodulin in water, at pH 7.5. The final enzyme concentration is 0.25, 0.074 and 0.0012 nM, for PDE1A, PDE1B and PDE1C respectively. The reactions are started by addition of the substrate, [^3H]cAMP, to give a final concentration of 47 nM.

human PDE4D = human PDE4D (Homo sapiens (Human), UniProt Q08499); assay: PDE enzyme assay using [3H]cAMP as substrate, PDE4D; settings: [3H]cAMP 47 nM; enzyme 0.021 nM; read-out: PDE 4D IC50 (μm) ± SD (n = number of runs)
Excerpt: as §1, §2, §3

human PDE1B = human PDE1B (Homo sapiens (Human), UniProt Q01064); assay: Ca2+ calmodulin dependent PDE enzyme assay (SPA, [3H]cAMP), PDE1B; settings: [3H]cAMP 47 nM; enzyme 0.074 nM; read-out: PDE 1B IC50 (nM) ± SD (n = number of runs)
Excerpt: as §1, §2, §4

human PDE1A = human PDE1A (Homo sapiens (Human), UniProt P54750); assay: Ca2+ calmodulin dependent PDE enzyme assay (SPA, [3H]cAMP), PDE1A; settings: [3H]cAMP 47 nM; enzyme 0.25 nM; read-out: PDE 1A IC50 (nM) ± SD (n = number of runs)
Excerpt: as §1, §2, §4

human PDE6A/6B, sequence (P16499 whole entry, the tested form may be a part): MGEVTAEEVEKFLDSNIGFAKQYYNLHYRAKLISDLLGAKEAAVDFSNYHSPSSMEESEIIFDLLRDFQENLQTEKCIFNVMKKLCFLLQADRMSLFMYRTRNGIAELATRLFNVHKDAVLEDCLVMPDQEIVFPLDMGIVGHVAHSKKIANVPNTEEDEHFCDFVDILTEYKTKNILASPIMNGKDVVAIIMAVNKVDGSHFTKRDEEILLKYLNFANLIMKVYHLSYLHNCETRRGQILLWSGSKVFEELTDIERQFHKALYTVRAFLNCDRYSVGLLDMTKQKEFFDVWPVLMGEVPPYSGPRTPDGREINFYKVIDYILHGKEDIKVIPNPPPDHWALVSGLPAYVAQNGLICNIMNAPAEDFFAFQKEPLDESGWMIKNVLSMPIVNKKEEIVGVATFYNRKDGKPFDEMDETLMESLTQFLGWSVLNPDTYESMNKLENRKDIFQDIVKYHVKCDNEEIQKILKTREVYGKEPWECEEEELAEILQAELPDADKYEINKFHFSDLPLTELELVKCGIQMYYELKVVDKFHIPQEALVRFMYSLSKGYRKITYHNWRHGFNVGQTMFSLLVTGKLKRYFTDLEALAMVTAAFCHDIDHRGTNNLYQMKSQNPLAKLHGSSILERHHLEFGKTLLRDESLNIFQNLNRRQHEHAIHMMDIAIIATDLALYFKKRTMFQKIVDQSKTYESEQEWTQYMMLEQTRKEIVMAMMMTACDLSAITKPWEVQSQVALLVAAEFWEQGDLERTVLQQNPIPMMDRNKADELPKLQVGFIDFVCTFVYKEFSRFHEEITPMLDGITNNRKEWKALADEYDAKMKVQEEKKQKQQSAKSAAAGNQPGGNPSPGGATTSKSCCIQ
human PDE6A/6B, sequence (P35913 other isoform, or with tags, fused parts or gaps): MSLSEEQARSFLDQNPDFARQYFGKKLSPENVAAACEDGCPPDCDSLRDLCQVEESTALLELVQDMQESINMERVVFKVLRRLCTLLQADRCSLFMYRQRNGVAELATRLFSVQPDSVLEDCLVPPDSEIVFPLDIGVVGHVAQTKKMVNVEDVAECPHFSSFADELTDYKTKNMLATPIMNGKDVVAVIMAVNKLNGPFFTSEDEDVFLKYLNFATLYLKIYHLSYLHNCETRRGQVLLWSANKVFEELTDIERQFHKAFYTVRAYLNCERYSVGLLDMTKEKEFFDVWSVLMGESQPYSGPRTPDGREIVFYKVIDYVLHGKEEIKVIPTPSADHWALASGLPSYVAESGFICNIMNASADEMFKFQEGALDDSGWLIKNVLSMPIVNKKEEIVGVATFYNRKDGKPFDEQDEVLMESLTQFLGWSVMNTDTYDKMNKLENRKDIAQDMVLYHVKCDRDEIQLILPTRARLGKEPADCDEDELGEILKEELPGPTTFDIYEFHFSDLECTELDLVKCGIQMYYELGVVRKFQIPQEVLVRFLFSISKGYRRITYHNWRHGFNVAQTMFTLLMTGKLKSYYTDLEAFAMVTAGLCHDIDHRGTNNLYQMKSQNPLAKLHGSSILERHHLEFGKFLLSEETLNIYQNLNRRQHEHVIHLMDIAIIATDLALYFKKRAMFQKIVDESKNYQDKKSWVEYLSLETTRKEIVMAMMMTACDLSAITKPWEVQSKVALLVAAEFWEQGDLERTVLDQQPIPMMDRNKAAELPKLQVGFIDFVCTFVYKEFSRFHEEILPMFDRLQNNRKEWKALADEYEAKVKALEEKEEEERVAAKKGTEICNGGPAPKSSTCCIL
human PDE3A (catalytic domain), sequence (Q14432 641-1141): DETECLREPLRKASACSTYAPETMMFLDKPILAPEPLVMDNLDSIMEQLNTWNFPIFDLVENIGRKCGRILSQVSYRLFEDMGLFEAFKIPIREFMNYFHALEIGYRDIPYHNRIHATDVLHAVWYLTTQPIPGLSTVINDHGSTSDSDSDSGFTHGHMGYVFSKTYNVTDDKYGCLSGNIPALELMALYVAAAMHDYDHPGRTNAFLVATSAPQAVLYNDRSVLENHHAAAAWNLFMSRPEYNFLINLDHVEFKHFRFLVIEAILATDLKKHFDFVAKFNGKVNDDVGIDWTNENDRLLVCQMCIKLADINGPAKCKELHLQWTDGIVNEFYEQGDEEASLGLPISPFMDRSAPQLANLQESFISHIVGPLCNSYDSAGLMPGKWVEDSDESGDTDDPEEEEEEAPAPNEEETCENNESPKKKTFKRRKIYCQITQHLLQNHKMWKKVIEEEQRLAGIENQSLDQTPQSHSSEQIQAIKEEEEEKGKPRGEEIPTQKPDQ
human PDE4D, sequence (Q08499 other isoform, or with tags, fused parts or gaps): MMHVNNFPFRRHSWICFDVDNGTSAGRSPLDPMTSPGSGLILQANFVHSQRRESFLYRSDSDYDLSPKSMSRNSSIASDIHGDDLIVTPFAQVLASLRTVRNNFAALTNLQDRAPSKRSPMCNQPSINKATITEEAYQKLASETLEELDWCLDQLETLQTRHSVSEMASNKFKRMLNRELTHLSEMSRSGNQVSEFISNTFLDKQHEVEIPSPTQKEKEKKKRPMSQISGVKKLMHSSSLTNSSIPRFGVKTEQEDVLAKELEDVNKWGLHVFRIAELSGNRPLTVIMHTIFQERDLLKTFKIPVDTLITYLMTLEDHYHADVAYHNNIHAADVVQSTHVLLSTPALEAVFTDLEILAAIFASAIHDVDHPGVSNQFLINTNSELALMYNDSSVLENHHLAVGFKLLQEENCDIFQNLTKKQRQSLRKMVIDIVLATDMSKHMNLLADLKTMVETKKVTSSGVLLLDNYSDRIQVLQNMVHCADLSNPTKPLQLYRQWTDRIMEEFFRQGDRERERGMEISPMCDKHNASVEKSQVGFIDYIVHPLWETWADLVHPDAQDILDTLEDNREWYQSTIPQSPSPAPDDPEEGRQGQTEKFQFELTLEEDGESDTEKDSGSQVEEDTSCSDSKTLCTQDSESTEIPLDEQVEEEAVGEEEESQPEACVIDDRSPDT

IC50 (human PDE6A/6B) | IC50 [1] | IC50 (human PDE1C) | IC50 (human PDE4D) | IC50 (human PDE1B) | IC50 (human PDE1A) | SMILES
> 10 µM | > 100000 nM | 2.6 ± 3.3 nM | 12700 nM | 3.1 nM | 2.9 ± 1.9 nM | CCCn1c2c(n3c(C4(C5CC5)CC4)nnc3c1=O)CCCC2 [Example 1, 1-([1,1′-bi(cyclopropan)]-1-yl)-5-propyl-6,7,8,9-tetrahydro-[1,2,4]triazolo[4,3-a]quinoxalin-4(5H)-one]
> 10 µM | > 100000 nM | 1.4 ± 0.9 nM | 13200 ± 2500 nM | 4.1 nM | 3 ± 2.1 nM | CCCCn1c2c(n3c(C4(C5CC5)CC4)nnc3c1=O)CCCC2 [Example 2, 1-([1,1′-bi(cyclopropan)]-1-yl)-5-butyl-6,7,8,9-tetrahydro-[1,2,4]triazolo[4,3-a]quinoxalin-4(5H)-one]
> 10 µM | > 100000 nM | 5.2 ± 0.6 nM | 16400 ± 300 nM | 8.7 nM | 9.8 ± 2.2 nM | O=c1c2nnc(C3(C4CC4)CC3)n2c2c(n1CC1CC1)CCOC2 [Example 3, 1-([1,1′-bi(cyclopropan)]-1-yl)-5-(cyclopropylmethyl)-5,6,7,9-tetrahydro-4H-pyrano[4,3-e][1,2,4]triazolo[4,3-a]pyrazin-4-one]
> 10 µM | > 100000 nM | 1.5 ± 0.5 nM | 21800 nM | 7.8 nM | 6.3 ± 0.4 nM | CCCCn1c2c(n3c(C4(C5CC5)CC4)nnc3c1=O)COCC2 [Example 4, 1-([1,1′-bi(cyclopropan)]-1-yl)-5-butyl-5,6,7,9-tetrahydro-4H-pyrano[4,3-e][1,2,4]triazolo[4,3-a]pyrazin-4-one]
> 10 µM | > 100000 nM | 1.9 ± 0.4 nM | 19200 nM | 4.2 nM | 5.8 ± 2.3 nM | O=c1c2nnc(C3(C4CC4)CC3)n2c2c(n1CC1CCC1)CCOC2 [Example 5, 1-([1,1′-bi(cyclopropan)]-1-yl)-5-(cyclobutylmethyl)-5,6,7,9-tetrahydro-4H-pyrano[4,3-e][1,2,4]triazolo[4,3-a]pyrazin-4-one]
> 10 µM | > 100000 nM | 7.6 ± 1.9 nM | 39200 ± 16500 nM | 14.9 nM | 8.4 ± 3.8 nM | O=c1c2nnc(C3(C4CC4)CC3)n2c2c(n1CC1CC1)COCC2 [Example 6, 1-(1-cyclopropylcyclopropyl)-5-(cyclopropylmethyl)-3-oxo-7,8-dihydro-5H-pyrano-[1,2,4]triazolo[4,3-a]quinoxalin-4-one]
> 10 µM | > 100000 nM | 2 ± 0.1 nM | > 100000 nM | 12 nM | 5.2 ± 2 nM | CCCCn1c2c(n3c(C4(C5CC5)CC4)nnc3c1=O)CCOC2 [Example 7, 1-([1,1′-bi(cyclopropan)]-1-yl)-5-butyl-8,9-dihydro-6H-pyrano[3,4-e][1,2,4]triazolo[4,3-a]pyrazin-4(5H)-one]
> 10 µM | > 100000 nM | 4.7 ± 1.4 nM | 12100 nM | 6.6 nM | 6.5 ± 2.6 nM | O=c1c2nnc(C3(C4CC4)CC3)n2c2c(n1CC1CC1)CCCCC2 [Example 8, 1-([1,1′-bi(cyclopropan)]-1-yl)-5-(cyclopropylmethyl)-5,6,7,8,9,10-hexahydro-4H-cyclohepta[e][1,2,4]triazolo[4,3-a]pyrazin-4-one]
